In patent publication US10226453B2, “3-(1H-indol-2-yl)-1H-pyrazolo[4,3-B]pyridines and therapeutic uses thereof” (Samumed, LLC, priority 2015, dated 2019):

Legend:
Assay type in all cases: cell-based
[1] = system: primary human fibroblasts derived from IPF patients (LL29 cells) treated with TGF-β1; assay: Inhibition of the fibrotic process: αSMA staining in TGF-β1 treated primary human fibroblasts from IPF patients (LL29 cells); conditions: Fibroblast, 96 h, TGF-β1 20 ng/mL, 4 days, % αSMA positive cells
Excerpt: Representative compounds were screened using primary human fibroblasts (derived from IPF patients) treated with TGF-β1 to determine their ability to inhibit the fibrotic process.
Primary human fibroblasts derived from IPF patients (LL29 cells) [^1Xiaoqiu Liu, et. al., “Fibrotic Lung Fibroblasts Show Blunted Inhibition by cAMP Due to Deficient cAMP Response Element-Binding Protein Phosphorylation”, Journal of Pharmacology and Experimental Therapeutics (2005), 315(2), 678-687; ^2Watts, K. L., et. al., “RhoA signaling modulates cyclin D1 expression in human lung fibroblasts; implications for idiopathic pulmonary fibrosis”, Respiratory Research (2006), 7(1), 88] were obtained from American Type Culture Collection (ATCC) and expanded in F12 medium supplemented with 15% Fetal Bovine Serum and Penicillin/Streptomycin.
Each compound was dissolved in DMSO as a 10 mM stock and used to prepare compound source plates. Serial dilution (1:2, 11-point dose-response curves from 10 μM to 1.87 nM) and compound transfer was performed using the ECHO 550 (Labcyte, Sunnyvale, Calif.) into 384-well clear bottom assay plates (Greiner Bio-One) with appropriate DMSO backfill for a final DMSO concentration of 0.1%. LL29 cells are plated at 1,500 cells/well in 80 μL/well F12 medium supplemented with 1% Fetal Bovine Serum. One hour after addition of the cells, TGF-β1 (Peprotech; 20 ng/mL) was added to the plates to induce fibrosis (ref. 1 and 2 above). Wells treated with TGF-β1 and containing DMSO were used as controls. Cells were incubated at 37° C. and 5% CO2 for 4 days. Following incubation for 4 days, SYTOX green nucleic acid stain (Life Technologies [Thermo Fisher Scientific]) was added to the wells at a final concentration of 1 μM and incubated at room temperature for 30 min. Cells were then fixed using 4% formaldehyde (Electron Microscopy Sciences), washed 3 times with PBS followed by blocking and permeabilization using 3% Bovine Serum Albumin (BSA; Sigma) and 0.3% Triton X-100 (Sigma) in PBS. Cells were then stained with antibody specific to α-smooth muscle actin (αSMA; Abcam) (ref. 1 and 2 above) in 3% Bovine Serum Albumin (BSA; Sigma) and 0.3% Triton X-100 (Sigma) in PBS, and incubated overnight at 4° C. Cells were then washed 3 times with PBS, followed by incubation with Alexa Flor-647 conjugated secondary antibody (Life Technologies [Thermo Fisher Scientific]) and DAPI at room temperature for 1 hour. Cells were then washed 3 times with PBS and plates were sealed for imaging. αSMA staining was imaged by excitation at 630 nm and emission at 665 nm and quantified using the Compartmental Analysis program on the CellInsight CX5 (Thermo Scientific). Dead or apoptotic cells were excluded from analysis based on positive SYTOX green staining. % of total cells positive for αSMA were counted in each well and normalized to the average of 11 wells treated with TGF-β1 on the same plate using Dotmatics' Studies Software. The normalized averages (fold change over untreated) of 3 replicate wells for each compound concentration were used to create dose-responses curves and EC50 values were calculated using non-linear regression curve fit in the Dotmatics' Studies Software. For EC50 of >10 μM, the percent inhibition at 10 μM is provided.

[2] = system: Wnt activity (Sp5-Luc reporter, SW480 colon carcinoma cells); assay: Wnt activity screening assay: Sp5-Luc reporter gene in SW480 colon carcinoma cells; conditions: Homo sapiens; for inhibition at 10 µM: given where EC50 >10 μM, read-out: percent inhibition at 10 μM; for EC50: overnight incubation, 10-point curve from 10 μM
Excerpt: The screening assay for Wnt activity is described as follows. Reporter cell lines can be generated by stably transducing cancer cell lines (e.g., colon cancer) or primary cells (e.g., IEC-6 intestinal cells) with a lentiviral construct that includes a Wnt-responsive promoter driving expression of the firefly luciferase gene.
SW480 colon carcinoma cells were transduced with a lentiviral vector expressing luciferase with a human Sp5 promoter consisting of a sequence of eight TCF/LEF binding sites. SW480 cells stably expressing the Sp5-Luc reporter gene and a hygromycin resistance gene were selected by treatment with 150 μg/mL of hygromycin for 7 days. These stably transduced SW480 cells were expanded in cell culture and used for all further screening activities. Each compound was dissolved in DMSO as a 10 mM stock and used to prepare compound source plates. Serial dilution (1:3, 10-point dose-response curves starting from 10 μM) and compound transfer was performed using the ECHO 550 (Labcyte, Sunnyvale, Calif.) into 384-well white solid bottom assay plates (Greiner Bio-One) with appropriate DMSO backfill for a final DMSO concentration of 0.1%. For Sp5-Luc reporter gene assays, the cells were plated at 4,000 cells/well in 384-well plates with medium containing 1% fetal bovine serum and incubated overnight at 37° C. and 5% CO2. Following incubation, 20 μl of BrightGlo luminescence reagent (Promega) was added to each well of the 384-well assay plates. The plates were placed on an orbital shaker for 2 min and then luminescence was quantified using the Envision (Perkin Elmer) plate reader. Readings were normalized to DMSO only treated cells, and normalized activities were utilized for EC50 calculations using the dose-response log (inhibitor) vs. response-variable slope (four parameters) nonlinear regression feature available in GraphPad Prism 5.0 (or Dotmatics). For EC50 of >10 μM, the percent inhibition at 10 μM is provided.

SW480 colon cancer cells = assay: Cell viability assay (CellTiter-Blue), SW480 colon cancer cells; conditions: Homo sapiens, 96 h, four days, CellTiter-Blue
Method: Representative compounds were screened using the following assay procedure to assess the effect on cell viability as described below.
Each compound was dissolved in DMSO as a 10 mM stock and used to prepare compound source plates. Serial dilution (1:3, 8-point dose-response curves from 10 μM to 0.0045 μM) and compound transfer was performed using the ECHO 550 (Labcyte, Sunnyvale, Calif.) into 96-well clear bottom, black-walled plates (Corning—Costar).
Approximately 2×10^3 SW480 colon cancer cells were seeded into each well and allowed to incubate in the presence or absence of compound for four days at 37° C./5% CO2. Eight replicates of DMSO-treated cells served as controls and cells treated with compound were performed in duplicate.
After incubation, 20 μL of CellTiter-Blue (Promega) was added to each well allowed to incubate for approximately 3 hours. This reagent was a buffered solution which contains resazurin, metabolically active cells were able to reduce rezarurin (blue) into resorufin (pink) which was highly fluorescent. This measured fluorescence was used as a readout for cell viability.
After incubation, the plates were read at Ex 560 nm Em 590 nm (Cytation 3, BioTek). Dose-response curves were generated and EC50 concentration values were calculated using non-linear regression curve fit in the GraphPad Prism (San Diego, Calif.) or Dotmatics' Studies Software (Bishops Stortford, UK). For EC50 of >10 μM, the percent inhibition at 10 μM is provided.

IL-6 (THP-1 cells) = assay: IL-6 inhibition in LPS-stimulated THP-1 human monocyte cells (HTRF); conditions: LPS 500 ng/mL, 22 hours, IL6 HTRF
Method: Human monocyte cell line (THP-1 cells; Catalog # TIB-202, ATCC, Manassas, Va.) were cultured in Roswell Park Memorial Institute (RPMI) 1640 Medium (Catalog #21870-100, Buffalo, N.Y.) with 1% L-glutamine, 1% HEPES, 1% Sodium Pyruvate, 2% Sodium Bicarbonate supplemented with 100 units/mL penicillin, 50 μg/mL streptomycin, 2-mercaptoethanol (0.05 mM) [basal medium] and 10% fetal bovine serum (Catalog #16140089, Life Technologies, Carlsbad, Calif.) at 37° C. and 5% CO2.
THP-1 cells were cultured in basal media with 1% FBS for 24 hours before the start of the assay. Each compound was dissolved in DMSO as a 10 mM stock and used to prepare compound source plates. Serial dilution (1:3, 10-point dose-response curves starting from 10 μM) and compound transfer was performed using the ECHO 550 (Labcyte, Sunnyvale, Calif.) into 384-well white low volume assay plates (Greiner Bio-One) with appropriate DMSO backfill for a final DMSO concentration of 0.1%. THP-1 cells were plated at 5000 cells/well in the 384-well plates and incubated at 37° C. for 2 h. 500 ng/mL of LPS was added after 2 hours and cells were incubated for another 22 hours at 37° C. Plates were spun in a centrifuge for 1 minute at […] and a mixture of anti-IL6 XL665, and anti-IL6 Cryptate diluted in reconstitution buffer (Cisbio Inc.) was added to each well. Following incubation for 3 hrs at room temperature, Homogeneous Time-Resolved Fluorescence (HTRF) was measured using the Envision (Perkin Elmer) at 665 nm and […]. The ratio of fluorescence at 665 nm to 620 nm was used as a readout for IL6 quantification. All samples were processed in duplicate. Readings were normalized to DMSO treated cells and normalized activities were utilized for EC50 calculations using the dose-response log (inhibitor) vs. response-variable slope (four parameters) nonlinear regression feature available in GraphPad Prism 5.0 (or Dotmatics). For EC50 of >10 μM, the percent inhibition at 10 μM is provided.

Row | SMILES | EC50 [1] | inhibition at 10 µM [2] | EC50 [2] | EC50 (SW480 colon cancer cells) | EC50 (IL-6 (THP-1 cells))
1 | CN1CCN(c2cccc3[nH]c(-c4n[nH]c5ccc(-c6cncc(CN7CCCCC7)c6)nc45)cc23)CC1 [Compound 239, 3-(4-(4-Methylpiperazin-1l-yl)-1H-indol-2-yl)-5-(5-(piperidin-1-ylmethyl)pyridin-3-yl)-1H-pyrazolo[4,3-b]pyridine] | 4.98 µM | 5% | > 10 µM | 9.36 µM | 1.19 µM
2 | CN1CCN(c2cccc3[nH]c(-c4n[nH]c5ccc(-c6cncc(NC(=O)CC(C)(C)C)c6)nc45)cc23)CC1 [Compound 240, 3,3-Dimethyl-N-(5-(3-(4-(4-methylpiperazin-1-yl)-1H-indol-2-yl)-1H-pyrazolo[4,3-b]pyridin-5-yl)pyridin-3-yl)butanamide] | 1.75 µM | – | 2.98 µM | 1.84 µM | 0.244 µM
3 | Cc1ccncc1-c1ccc2[nH]nc(-c3cc4ccccc4[nH]3)c2n1 [Compound 257, 3-(1H-Indol-2-yl)-5-(4-methylpyridin-3-yl)-1H-pyrazolo[4,3-b]pyridine] | 4.64 µM | – | 3.69 µM | 8.06 µM | 0.017 µM
4 | O=C(Nc1cncc(-c2ccc3[nH]nc(-c4cc5c(-c6cccs6)cccc5[nH]4)c3n2)c1)c1ccccc1 [Compound 347, N-(5-(3-(4-(Thiophen-2-yl)-1H-indol-2-yl)-1H-pyrazolo[4,3-b]pyridin-5-yl)pyridin-3-yl)benzamide] | 0.446 µM | 35.8% | > 10 µM | 6.08 µM | 1.07 µM
5 | CN(C)Cc1cncc(-c2ccc3[nH]nc(-c4cc5c(-c6cccs6)cccc5[nH]4)c3n2)c1 [Compound 349, N,N-Dimethyl-1-(5-(3-(4-(thiophen-2-yl)-1H-indol-2-yl)-1H-pyrazolo[4,3-b]pyridin-5-yl)pyridin-3-yl)methanamine] | 1.27 µM | – | 8.28 µM | 2.84 µM | 0.137 µM
6 | c1csc(-c2cccc3[nH]c(-c4n[nH]c5ccc(-c6ccncc6)nc45)cc23)c1 [Compound 354, 5-(Pyridin-4-yl)-3-(4-(thiophen-2-yl)-1H-indol-2-yl)-1H-pyrazolo[4,3-b] pyridine] | 1.46 µM | – | 3.6 µM | 4.12 µM | 1.42 µM
7 | CN(C)CCNc1cc(F)cc(-c2cccc3[nH]c(-c4n[nH]c5ccc(-c6cncc(NC(=O)Cc7ccccc7)c6)nc45)cc23)c1 [Compound 458, N-(5-(3-(4-(3-((2-(Dimethylamino)ethyl)amino)-5-fluorophenyl)-1H-indol-2-yl)-1H-pyrazolo[4,3-b]pyridin-5-yl)pyridin-3-yl)-2-phenylacetamide] | 1.86 µM | – | 1.03 µM | 0.97 µM | 1.46 µM
8 | CC(C)(C)CC(=O)Nc1cncc(-c2ccc3[nH]nc(-c4cc5c(-c6cc(F)cc(CNS(C)(=O)=O)c6)cccc5[nH]4)c3n2)c1 [Compound 492, N-(5-(3-(4-(3-Fluoro-5-(methylsulfonamidomethyl)phenyl)-1H-indol-2-yl)-1H-pyrazolo[4,3-b]pyridin-5-yl)pyridin-3-yl)-3,3-dimethylbutanamide] | 0.345 µM | – | 0.292 µM | 1.06 µM | 0.261 µM
9 | CS(=O)(=O)NCc1cc(F)cc(-c2cccc3[nH]c(-c4n[nH]c5ccc(-c6cncc(NC(=O)C7CCCC7)c6)nc45)cc23)c1 [Compound 498, N-(5-(3-(4-(3-Fluoro-5-(methylsulfonamidomethyl)phenyl)-1H-indol-2-yl)-1H-pyrazolo[4,3-b]pyridin-5-yl)pyridin-3-yl)cyclopentanecarboxamide] | 0.403 µM | – | 0.306 µM | 0.827 µM | 0.106 µM
10 | CS(=O)(=O)NCc1cc(F)cc(-c2cccc3[nH]c(-c4n[nH]c5ccc(-c6cncc(CN7CCC(F)(F)C7)c6)nc45)cc23)c1 [Compound 502, N-(3-(2-(5-(5-((3,3-Difluoropyrrolidin-1-yl)methyl)pyridin-3-yl)-1H-pyrazolo[4,3-b]pyridin-3-yl)-1H-indol-4-yl)-5-fluorobenzyl)methanesulfonamide] | 0.148 µM | – | 0.196 µM | 0.693 µM | 0.298 µM
